Reference: patent US5223178A (priority 1990, dated 1993)
Values after ≈ are worked out from the molar mass of the structure shown. Read-outs that look alike come from different tables or passages of the source.

Columns and labels:
Alternaria solani = assay: PDA plate mycelial radial growth inhibition (paint film mildew fungi), Table 1; type: cell-based; settings: PDA plates, read-out: EC75 (concentration giving 75% control of hyphal growth)
Protocol: (§1) The test was run as follows. Potato dextrose agar (PDA) was dissolved in water (30 g PDA/1) and autoclaved at 15 psi for 15 minutes. PDA was purchased from Difco. Triazoles were dissolved in a small quantity of methanol and added to autoclaved, molten potato dextrose agar in a dilution series to give 0.01, 0.1, 1, 10 and 100 ug ml^-1. Final methanol content of the highest dose was included. The molten agar was pipetted into Petri plates (15 ml per plate) and allowed to set. Two 5 mm mycelial plugs were removed from mother cultures of each of the fungal species tested, and were placed near the edge of the test plates. When colonies were 10-40 mm in diameter, the radial mycelial growth was measured and EC75 values were determined on log-probit paper.
EC75 values (concentration giving 75% control of hyphal growth) are reported.

Piricularia oryzae = assay: microbe, parasite or virus in culture; type: cell-based; settings: 72 h
Aspergillus niger = assay: Paint film mildewcide popsickle stick test, Table 6; settings: A. niger, 10 days, 30° C., 95% RH
Protocol: (§2) Testing is described below.
(§3) Testing was done in a commercial acrylic-based latex paint with conventional pigments, dispersants, and the like. Texanol (R) is trimethyl-1,3-pentanediol monisobutyrate supplied by Eastman Chemical. "Latex" is a latex of a copolymer of butyl acrylate and methyl methacrylate.
(§4) To a sealable container was charged 100 parts of the paint formulation and the desired triazole concentration. The sample was homogenized for 15 minutes each, then blended and remixed.
(§5) Three triazoles were evaluated for their effectiveness as paint film mildewcides at […] and 10 lbs/100 gallons in a laboratory popsickle stick test. Untreated controls were included in the test.
(§6) Duplicate popsickle sticks painted with the treated and untreated paint sample were inoculated with Aureobasidium pullulans and Aspergillus niger. The sticks were inoculated for 10 days at 30° C. and 95% RH and samples were rated for fungal growth.

Aureobasidium pullulans = assay: as above; settings: A. pullulans, 10 days, 30° C., 95% RH
Protocol: as §2, §3, §4, §5, §6

Aspergillus flavus = assay: PDA plate mycelial radial growth inhibition (paint film mildew fungi), Table 2; type: cell-based; settings: read-out: EC50 (concentration giving 50% control of hyphal growth)
Protocol: as §1
(§7) EC50 values (concentration giving 50% control of hyphal growth) are reported.

Aureobasidum pullulans = assay: as above; type: cell-based; settings: read-out: EC50 (concentration giving 50% control of hyphal growth)
Protocol: as §1, §7

Cladisporium resinae = assay: as above; type: cell-based; settings: read-out: EC50 (concentration giving 50% control of hyphal growth)
Protocol: as §1, §7

Gloeophyllum tradeum = assay: Wood decay fungi radial growth inhibition on PDA, Table 7; type: cell-based; settings: read-out: EC50 (concentration giving 50% control of hyphal growth)
Protocol: (§8) The test was run as follows. Potato dextrose agar (PDA) was dissolved in water (39 g/l) and autoclaved at 15 psi for 15 min. PDA was purchased from Difco. The triazole was dissolved in a small quantity of dimethylsulfoxide (DMSO) and diluted to appropriate concentrations with the same solvent. Ten microliters of the appropriate solution was added to each of five wells of a Falcon 6 well tissue culture dish. To the sixth well was added ten microliters of DMSO as a control. Five ml of molten PDA was then added to each of the wells to give […] μg ml-1 of triazole. The plate was gently agitated to afford a uniform mixture. Upon cooling, the dishes were inoculated with a six mm agar plug from a freshly grown culture of the test organism. The assay plates were then incubated at room temperature and evaluated when the radial growth in the control well had reached approximately 30 mm. The radial growth for the treated wells was measured and the growth inhibition and EC50 values were calculated using non-linear regression analysis. Data are shown in Table 7 for triazoles VIII and IX (Table). EC50 values (concentration giving 50% control of hyphal growth) are reported.

Phialophora mutabilis = assay: as above; type: cell-based; settings: Coniochaeta mutabilis, room temperature, read-out: EC50 (concentration giving 50% control of hyphal growth)
Protocol: as §8

Poria placenta = assay: as above; type: cell-based; settings: room temperature, read-out: EC50 (concentration giving 50% control of hyphal growth)
Protocol: as §8

Trametes Versicolor = assay: as above; type: cell-based; settings: room temperature, read-out: EC50 (concentration giving 50% control of hyphal growth)
Protocol: as §8

[1] = pH 3.5, read-out: EC90 for mycelial growth
[2] = pH 4.8, read-out: EC90 for mycelial growth
[3] = pH 5.4, read-out: EC90 for mycelial growth
[4] = pH 6.3, read-out: EC90 for mycelial growth
[5] = pH 7.2, read-out: EC90 for mycelial growth
[6] = pH 7.7, read-out: EC90 for mycelial growth
[7] = pH 8.7, read-out: EC90 for mycelial growth
[8] = pH 9.8, read-out: EC90 for mycelial growth
[9] = pH 11.2, read-out: EC90 for mycelial growth

SMILES	EC90 (Piricularia oryzae; [1])	EC90 (Piricularia oryzae; [2])	EC90 (Piricularia oryzae; [3])	EC90 (Piricularia oryzae; [4])	EC90 (Piricularia oryzae; [5])	EC90 (Piricularia oryzae; [6])	EC90 (Piricularia oryzae; [7])	EC90 (Piricularia oryzae; [8])	EC90 (Piricularia oryzae; [9])	Fungal growth rating (Aspergillus niger; replicate 1, 1 lbs/100 gal)	Fungal growth rating (Aspergillus niger; replicate 1, 5 lbs/100 gal)	Fungal growth rating (Aspergillus niger; replicate 1, 10 lbs/100 gal)	Fungal growth rating (Aspergillus niger; replicate 2, 1 lbs/100 gal)	Fungal growth rating (Aureobasidium pullulans; replicate 1, 1 lbs/100 gal)	Fungal growth rating (Aureobasidium pullulans; replicate 2, 1 lbs/100 gal)	EC50 (Aspergillus flavus)	EC50 (Cladisporium resinae)	EC50 (Gloeophyllum tradeum)	EC50 (Phialophora mutabilis)	EC50 (Poria placenta)	other results
N#CC(CCc1ccc(Cl)cc1)(Cn1cncn1)c1ccccc1 (stereo not drawn) [I, α-[2-(4-chlorophenyl)ethyl]-α-phenyl-1H-1,2,4-triazole-1-propanenitrile]	0.5 µg/mL (≈ 1.48 µM)	0.1 µg/mL (≈ 0.297 µM)	0.1 µg/mL (≈ 0.297 µM)	0.1 µg/mL (≈ 0.297 µM)	0.1 µg/mL (≈ 0.297 µM)	0.1 µg/mL (≈ 0.297 µM)	0.1 µg/mL (≈ 0.297 µM)	0.1 µg/mL (≈ 0.297 µM)	0.1 µg/mL (≈ 0.297 µM)	4+	4+	3+	4+	2+	2+	–	–	–	–	–	EC75 (Alternaria solani): 5 µg/mL (≈ 14.8 µM); Fungal growth rating (Aspergillus niger; replicate 2, 5 lbs/100 gal): 3+; Fungal growth rating (Aspergillus niger; replicate 2, 10 lbs/100 gal): 3+
CCCCC(C#N)(Cn1cncn1)c1ccc(Cl)cc1 (stereo not drawn) [II, α-n-butyl-α-4-chlorophenyl-1H-1,2,4-triazole-1-propanenitrile]	5 µg/mL (≈ 17.3 µM)	4.5 µg/mL (≈ 15.6 µM)	4.5 µg/mL (≈ 15.6 µM)	4.5 µg/mL (≈ 15.6 µM)	4.5 µg/mL (≈ 15.6 µM)	4.5 µg/mL (≈ 15.6 µM)	5 µg/mL (≈ 17.3 µM)	4.5 µg/mL (≈ 15.6 µM)	4.5 µg/mL (≈ 15.6 µM)	3+	2+	1+	2+	3+	4+	–	–	–	–	–	Fungal growth rating (Aureobasidium pullulans; replicate 1, 5 lbs/100 gal): 2+; Fungal growth rating (Aureobasidium pullulans; replicate 1, 10 lbs/100 gal): 2+; Fungal growth rating (Aureobasidium pullulans; replicate 2, 5 lbs/100 gal): 2+; Fungal growth rating (Aureobasidium pullulans; replicate 2, 10 lbs/100 gal): 1+
CCCCC(C#N)(Cn1cncn1)c1ccc(Cl)cc1 (stereo not drawn) [Structure IX, α-n-butyl-α-4-chlorophenyl-1H-1,2,4-triazole-1-propanenitrile]	–	–	–	–	–	–	–	–	–	–	–	–	–	–	–	1.2 µg/mL (≈ 4.16 µM)	1.7 µg/mL (≈ 5.89 µM)	0.313 µg/mL (≈ 1.08 µM)	1.45 µg/mL (≈ 5.01 µM)	0.228 µg/mL (≈ 0.79 µM)	EC50 (Aureobasidum pullulans): 0.5 µg/mL (≈ 1.73 µM); EC50 (Trametes Versicolor): 0.118 µg/mL (≈ 0.409 µM)
N#CC(CCc1ccc(Cl)cc1)(Cn1cncn1)c1ccccc1 (stereo not drawn) [Structure VIII, α-[2-(4-chlorophenyl)ethyl]-α-phenyl-1H-1,2,4-triazole-1-propanenitrile]	–	–	–	–	–	–	–	–	–	–	–	–	–	–	–	3.5 µg/mL (≈ 10.4 µM)	0.025 µg/mL (≈ 0.0742 µM)	0.158 µg/mL (≈ 0.469 µM)	0.612 µg/mL (≈ 1.82 µM)	0.175 µg/mL (≈ 0.52 µM)	EC50 (Trametes Versicolor): 0.061 µg/mL (≈ 0.181 µM)
